How the values were obtained:
[1] = target: Eukaryotic elongation factor 2 kinase (Homo sapiens) (UniProt O00418); test: Inhibition of EF2K at 10 uM assessed as residual activity by [33P]ATP radioactive filter binding assay relative to control
[2] = target: Serine/threonine-protein kinase Chk1 (Homo sapiens) (UniProt O14757); test: Inhibition of CHK1 at 10 uM assessed as residual activity by [33P]ATP radioactive filter binding assay relative to control
[3] = target: MAP kinase-activated protein kinase 3 (Homo sapiens) (UniProt Q16644); test: Inhibition of MAPKAPK-3 at 10 uM assessed as residual activity by [33P]ATP radioactive filter binding assay relative to control
[4] = target: Cyclin-dependent kinase 2/cyclin A (Homo sapiens) (UniProt P24941+P20248+P78396); test: Inhibition of CDK2/Cyclin A at 10 uM assessed as residual activity by [33P]ATP radioactive filter binding assay relative to control; format: protein-complex assay
[5] = target: MAP kinase-activated protein kinase 2 (Homo sapiens) (UniProt P49137); test: Inhibition of MAPKAP-K2 at 10 uM assessed as residual activity by [33P]ATP radioactive filter binding assay relative to control
[6] = target: Insulin receptor (Homo sapiens) (UniProt P06213); test: Inhibition of His-IR at 10 uM assessed as residual activity by [33P]ATP radioactive filter binding assay relative to control
[7] = target: Homeodomain-interacting protein kinase 3 (Homo sapiens) (UniProt Q9H422); test: Inhibition of HIPK3 at 10 uM assessed as residual activity by [33P]ATP radioactive filter binding assay relative to control
[8] = target: Mitogen-activated protein kinase 8 (Homo sapiens) (UniProt P45983); test: Inhibition of JNK1 at 10 uM assessed as residual activity by [33P]ATP radioactive filter binding assay relative to control
[9] = target: Casein kinase I isoform alpha (Homo sapiens) (UniProt P48729); test: Inhibition of CK1 at 10 uM assessed as residual activity by [33P]ATP radioactive filter binding assay relative to control
[10] = target: Myosin light chain kinase, smooth muscle (Homo sapiens) (UniProt Q15746); test: Inhibition of SmMLCK at 10 uM assessed as residual activity by [33P]ATP radioactive filter binding assay relative to control
[11] = target: RAC-beta serine/threonine-protein kinase (Homo sapiens) (UniProt P31751); test: Inhibition of PKBbeta at 10 uM assessed as residual activity by [33P]ATP radioactive filter binding assay relative to control
[12] = target: Receptor-interacting serine/threonine-protein kinase 2 (Homo sapiens) (UniProt O43353); test: Inhibition of RIPK2 at 10 uM assessed as residual activity by [33P]ATP radioactive filter binding assay relative to control
[13] = target: Dual specificity mitogen-activated protein kinase kinase 1 (Homo sapiens) (UniProt Q02750); test: Inhibition of MKK1 at 10 uM assessed as residual activity by [33P]ATP radioactive filter binding assay relative to control
[14] = target: Protein kinase C alpha type (Homo sapiens) (UniProt P17252); test: Inhibition of PKCalpha at 10 uM assessed as residual activity by [33P]ATP radioactive filter binding assay relative to control
[15] = target: Mitogen-activated protein kinase kinase kinase kinase 2 (Homo sapiens) (UniProt Q12851); test: Inhibition of GCK at 10 uM assessed as residual activity by [33P]ATP radioactive filter binding assay relative to control
[16] = target: Serine/threonine-protein kinase pim-3 (Homo sapiens) (UniProt Q86V86); test: Inhibition of PIM3 at 10 uM assessed as residual activity by [33P]ATP radioactive filter binding assay relative to control
[17] = target: MAP kinase-activated protein kinase 5 (Homo sapiens) (UniProt Q8IW41); test: Inhibition of PRAK at 10 uM assessed as residual activity by [33P]ATP radioactive filter binding assay relative to control
[18] = target: Rho-associated protein kinase 2 (Homo sapiens) (UniProt O75116); test: Inhibition of ROCK2 at 10 uM assessed as residual activity by [33P]ATP radioactive filter binding assay relative to control
[19] = target: Calcium/calmodulin-dependent protein kinase type 1 (Homo sapiens) (UniProt Q14012); test: Inhibition of CAMK1 at 10 uM assessed as residual activity by [33P]ATP radioactive filter binding assay relative to control
[20] = target: Serine/threonine-protein kinase STK11 (Homo sapiens) (UniProt Q15831); test: Inhibition of LKB1 at 10 uM assessed as residual activity by [33P]ATP radioactive filter binding assay relative to control
[21] = target: MAP/microtubule affinity-regulating kinase 4 (Homo sapiens) (UniProt Q96L34); test: Inhibition of MARK4 at 10 uM assessed as residual activity by [33P]ATP radioactive filter binding assay relative to control
[22] = target: Interleukin-1 receptor-associated kinase 4 (Homo sapiens) (UniProt Q9NWZ3); test: Inhibition of IRAK4 at 10 uM assessed as residual activity by [33P]ATP radioactive filter binding assay relative to control
[23] = target: Ribosomal protein S6 kinase alpha-1 (Homo sapiens) (UniProt Q15418); test: Inhibition of RSK1 at 10 uM assessed as residual activity by [33P]ATP radioactive filter binding assay relative to control
[24] = target: Fibroblast growth factor receptor 1 (Homo sapiens) (UniProt P11362); test: Inhibition of FGF-R1 at 10 uM assessed as residual activity by [33P]ATP radioactive filter binding assay relative to control
[25] = target: Mitogen-activated protein kinase 15 (Homo sapiens) (UniProt Q8TD08); test: Inhibition of ERK8 at 10 uM assessed as residual activity by [33P]ATP radioactive filter binding assay relative to control
[26] = target: Serine/threonine-protein kinase Nek2 (Homo sapiens) (UniProt P51955); test: Inhibition of NEK2a at 10 uM assessed as residual activity by [33P]ATP radioactive filter binding assay relative to control
[27] = target: Serine/threonine-protein kinase Chk2 (Homo sapiens) (UniProt O96017); test: Inhibition of CHK2 at 10 uM assessed as residual activity by [33P]ATP radioactive filter binding assay relative to control
[28] = target: Serine/threonine-protein kinase PAK 6 (Homo sapiens) (UniProt Q9NQU5); test: Inhibition of PAK6 at 10 uM assessed as residual activity by [33P]ATP radioactive filter binding assay relative to control
[29] = target: Serine/threonine-protein kinase PAK 5 (Homo sapiens) (UniProt Q9P286); test: Inhibition of PAK5 at 10 uM assessed as residual activity by [33P]ATP radioactive filter binding assay relative to control
[30] = target: Serine/threonine-protein kinase pim-1 (Homo sapiens) (UniProt P11309); test: Inhibition of PIM1 at 10 uM assessed as residual activity by [33P]ATP radioactive filter binding assay relative to control
[31] = cells; conditions: Mus musculus, BaF3, 96 h
Description: Growth inhibition of mouse BA/F3 cells expressing EGFR Del1 and Thr790Met mutant after 96 hrs by cell titer-glo assay

Sequence of MAP/microtubule affinity-regulating kinase 4 (Homo sapiens) (Q96L34 whole entry): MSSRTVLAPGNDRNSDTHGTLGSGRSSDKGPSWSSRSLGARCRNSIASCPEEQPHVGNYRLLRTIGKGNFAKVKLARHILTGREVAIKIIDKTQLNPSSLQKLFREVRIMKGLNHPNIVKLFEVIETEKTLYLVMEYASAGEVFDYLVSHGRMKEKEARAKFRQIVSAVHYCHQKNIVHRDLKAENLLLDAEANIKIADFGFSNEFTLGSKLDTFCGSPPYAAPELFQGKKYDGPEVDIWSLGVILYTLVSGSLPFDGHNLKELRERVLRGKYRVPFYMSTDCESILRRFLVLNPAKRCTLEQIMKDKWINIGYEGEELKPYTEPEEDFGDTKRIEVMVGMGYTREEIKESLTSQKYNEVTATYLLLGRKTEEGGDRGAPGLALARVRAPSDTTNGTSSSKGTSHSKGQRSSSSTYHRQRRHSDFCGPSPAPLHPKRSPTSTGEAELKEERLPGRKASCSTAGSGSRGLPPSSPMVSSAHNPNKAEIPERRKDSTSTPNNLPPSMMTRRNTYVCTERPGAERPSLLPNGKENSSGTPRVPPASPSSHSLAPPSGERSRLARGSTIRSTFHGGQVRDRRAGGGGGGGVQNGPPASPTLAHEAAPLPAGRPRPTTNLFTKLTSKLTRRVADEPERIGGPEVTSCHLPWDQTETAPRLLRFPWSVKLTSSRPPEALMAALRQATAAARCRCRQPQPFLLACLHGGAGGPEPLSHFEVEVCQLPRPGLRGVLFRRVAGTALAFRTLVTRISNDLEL
Sequence of Serine/threonine-protein kinase STK11 (Homo sapiens) (Q15831 whole entry): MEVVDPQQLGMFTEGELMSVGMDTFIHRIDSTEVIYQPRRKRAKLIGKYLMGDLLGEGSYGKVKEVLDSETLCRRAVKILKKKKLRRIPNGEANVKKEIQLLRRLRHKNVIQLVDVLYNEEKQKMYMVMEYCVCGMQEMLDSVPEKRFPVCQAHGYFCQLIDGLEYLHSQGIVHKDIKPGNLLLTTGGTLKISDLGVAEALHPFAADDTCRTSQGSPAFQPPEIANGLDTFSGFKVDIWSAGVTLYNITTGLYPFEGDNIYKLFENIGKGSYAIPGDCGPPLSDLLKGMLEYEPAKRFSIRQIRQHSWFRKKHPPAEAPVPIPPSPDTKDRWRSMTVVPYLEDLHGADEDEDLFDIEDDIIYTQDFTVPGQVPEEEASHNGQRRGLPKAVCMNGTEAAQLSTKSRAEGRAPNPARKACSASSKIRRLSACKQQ
Sequence of Insulin receptor (Homo sapiens) (P06213 28-758 limits assumed): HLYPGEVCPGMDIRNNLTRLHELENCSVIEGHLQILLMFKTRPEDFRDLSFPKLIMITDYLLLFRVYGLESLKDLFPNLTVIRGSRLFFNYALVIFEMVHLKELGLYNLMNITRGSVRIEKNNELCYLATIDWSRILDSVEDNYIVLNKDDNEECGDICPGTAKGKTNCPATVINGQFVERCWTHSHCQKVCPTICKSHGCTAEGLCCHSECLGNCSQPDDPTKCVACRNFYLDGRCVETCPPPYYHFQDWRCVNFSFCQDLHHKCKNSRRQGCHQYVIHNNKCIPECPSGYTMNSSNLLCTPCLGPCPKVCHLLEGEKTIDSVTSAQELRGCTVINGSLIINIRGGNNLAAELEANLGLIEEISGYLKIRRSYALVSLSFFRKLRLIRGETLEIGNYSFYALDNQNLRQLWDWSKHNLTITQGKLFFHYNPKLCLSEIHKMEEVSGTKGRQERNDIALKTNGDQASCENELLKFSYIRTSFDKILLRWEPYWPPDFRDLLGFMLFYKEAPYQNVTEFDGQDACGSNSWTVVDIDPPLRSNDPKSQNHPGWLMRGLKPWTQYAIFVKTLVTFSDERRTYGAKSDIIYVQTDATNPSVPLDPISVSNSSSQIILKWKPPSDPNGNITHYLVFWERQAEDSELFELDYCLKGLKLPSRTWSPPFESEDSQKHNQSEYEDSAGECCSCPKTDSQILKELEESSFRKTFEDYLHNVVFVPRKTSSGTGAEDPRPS
Sequence of Insulin receptor (Homo sapiens) (P06213 763-1382 limits assumed): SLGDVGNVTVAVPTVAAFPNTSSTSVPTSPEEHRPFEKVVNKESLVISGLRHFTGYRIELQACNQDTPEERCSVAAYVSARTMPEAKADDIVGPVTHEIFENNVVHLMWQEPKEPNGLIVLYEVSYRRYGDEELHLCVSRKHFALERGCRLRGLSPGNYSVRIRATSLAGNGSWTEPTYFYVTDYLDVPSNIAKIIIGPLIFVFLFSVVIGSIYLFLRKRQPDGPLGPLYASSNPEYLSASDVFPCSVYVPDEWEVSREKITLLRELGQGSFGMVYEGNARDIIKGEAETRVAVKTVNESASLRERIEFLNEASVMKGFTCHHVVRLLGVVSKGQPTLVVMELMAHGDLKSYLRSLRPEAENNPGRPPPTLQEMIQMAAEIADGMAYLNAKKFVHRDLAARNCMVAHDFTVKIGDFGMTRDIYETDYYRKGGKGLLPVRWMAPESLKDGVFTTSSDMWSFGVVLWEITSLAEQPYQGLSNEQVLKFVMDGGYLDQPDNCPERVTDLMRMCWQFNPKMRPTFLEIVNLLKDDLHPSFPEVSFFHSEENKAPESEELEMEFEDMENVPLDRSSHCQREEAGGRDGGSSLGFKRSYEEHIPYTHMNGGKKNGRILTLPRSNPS
Sequence of Serine/threonine-protein kinase PAK 5 (Homo sapiens) (Q9P286 whole entry, looked up): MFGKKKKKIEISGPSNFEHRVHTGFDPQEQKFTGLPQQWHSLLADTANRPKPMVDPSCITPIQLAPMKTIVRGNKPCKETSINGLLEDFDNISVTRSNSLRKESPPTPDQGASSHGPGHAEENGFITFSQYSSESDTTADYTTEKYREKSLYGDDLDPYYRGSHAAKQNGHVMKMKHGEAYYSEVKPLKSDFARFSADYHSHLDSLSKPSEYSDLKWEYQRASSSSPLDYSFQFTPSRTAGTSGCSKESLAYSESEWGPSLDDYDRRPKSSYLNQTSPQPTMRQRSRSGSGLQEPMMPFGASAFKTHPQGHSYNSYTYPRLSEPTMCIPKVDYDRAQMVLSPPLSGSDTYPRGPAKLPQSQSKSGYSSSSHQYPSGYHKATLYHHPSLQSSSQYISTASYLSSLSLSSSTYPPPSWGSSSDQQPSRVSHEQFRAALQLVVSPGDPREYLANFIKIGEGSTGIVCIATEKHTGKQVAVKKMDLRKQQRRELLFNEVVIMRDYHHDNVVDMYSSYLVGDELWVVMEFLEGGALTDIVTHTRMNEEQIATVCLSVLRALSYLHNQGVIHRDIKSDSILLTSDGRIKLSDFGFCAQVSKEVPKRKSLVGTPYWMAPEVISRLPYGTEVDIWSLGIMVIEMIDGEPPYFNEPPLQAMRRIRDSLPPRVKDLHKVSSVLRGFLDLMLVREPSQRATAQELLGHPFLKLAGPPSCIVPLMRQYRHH
Sequence of Mitogen-activated protein kinase 8 (Homo sapiens) (P45983 whole entry, canonical isoform): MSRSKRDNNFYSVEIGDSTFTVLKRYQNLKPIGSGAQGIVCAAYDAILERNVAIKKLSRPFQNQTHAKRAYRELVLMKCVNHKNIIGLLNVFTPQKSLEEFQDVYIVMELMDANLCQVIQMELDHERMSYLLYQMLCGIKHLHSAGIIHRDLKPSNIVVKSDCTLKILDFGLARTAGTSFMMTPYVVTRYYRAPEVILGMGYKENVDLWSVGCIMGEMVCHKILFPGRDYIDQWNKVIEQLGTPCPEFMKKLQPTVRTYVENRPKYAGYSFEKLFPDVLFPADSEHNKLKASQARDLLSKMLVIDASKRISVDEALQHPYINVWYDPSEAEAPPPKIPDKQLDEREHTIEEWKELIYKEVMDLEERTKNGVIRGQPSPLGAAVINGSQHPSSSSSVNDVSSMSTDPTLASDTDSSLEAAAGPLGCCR
Sequence of Receptor-interacting serine/threonine-protein kinase 2 (Homo sapiens) (O43353 whole entry): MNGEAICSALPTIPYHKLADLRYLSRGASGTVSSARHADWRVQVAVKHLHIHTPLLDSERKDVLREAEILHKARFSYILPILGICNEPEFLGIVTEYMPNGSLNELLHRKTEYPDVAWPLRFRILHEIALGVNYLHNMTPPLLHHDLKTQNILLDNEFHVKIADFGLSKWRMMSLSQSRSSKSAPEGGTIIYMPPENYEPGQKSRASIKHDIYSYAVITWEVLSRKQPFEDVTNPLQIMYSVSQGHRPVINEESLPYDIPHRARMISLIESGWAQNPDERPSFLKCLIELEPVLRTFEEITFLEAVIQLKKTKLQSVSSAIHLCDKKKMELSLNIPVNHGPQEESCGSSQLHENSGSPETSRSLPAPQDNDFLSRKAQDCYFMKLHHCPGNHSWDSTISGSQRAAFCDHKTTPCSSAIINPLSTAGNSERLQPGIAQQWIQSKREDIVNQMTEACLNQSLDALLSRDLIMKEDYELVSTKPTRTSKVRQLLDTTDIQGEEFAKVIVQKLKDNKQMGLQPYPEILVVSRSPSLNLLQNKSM
Sequence of Eukaryotic elongation factor 2 kinase (Homo sapiens) (O00418 whole entry): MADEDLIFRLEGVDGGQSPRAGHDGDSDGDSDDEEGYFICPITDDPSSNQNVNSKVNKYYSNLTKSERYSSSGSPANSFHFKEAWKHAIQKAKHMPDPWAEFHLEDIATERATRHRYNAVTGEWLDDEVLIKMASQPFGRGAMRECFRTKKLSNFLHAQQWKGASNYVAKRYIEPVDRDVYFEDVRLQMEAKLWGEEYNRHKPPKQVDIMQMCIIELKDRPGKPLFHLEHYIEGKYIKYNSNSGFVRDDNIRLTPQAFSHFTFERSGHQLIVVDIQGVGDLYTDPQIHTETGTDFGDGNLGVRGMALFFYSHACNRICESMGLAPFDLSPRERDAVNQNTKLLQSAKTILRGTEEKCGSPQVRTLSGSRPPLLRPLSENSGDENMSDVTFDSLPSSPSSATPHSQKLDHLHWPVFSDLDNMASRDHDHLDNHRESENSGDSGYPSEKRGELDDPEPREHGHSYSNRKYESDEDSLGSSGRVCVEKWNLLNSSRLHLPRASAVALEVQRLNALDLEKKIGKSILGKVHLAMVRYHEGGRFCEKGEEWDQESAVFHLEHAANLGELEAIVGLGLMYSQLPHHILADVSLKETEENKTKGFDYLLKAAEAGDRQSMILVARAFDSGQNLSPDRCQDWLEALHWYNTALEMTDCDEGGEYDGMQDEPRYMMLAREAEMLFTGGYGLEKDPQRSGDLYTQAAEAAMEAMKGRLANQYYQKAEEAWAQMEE

| SMILES | Activity [1] [%] | Activity [2] [%] | Activity [3] [%] | Activity [4] [%] | Activity [5] [%] | Activity [6] [%] | Activity [7] [%] | Activity [8] [%] | Activity [9] [%] | Activity [10] [%] | Activity [11] [%] | Activity [12] [%] | Activity [13] [%] | Activity [14] [%] | Activity [15] [%] | Activity [16] [%] | Activity [17] [%] | Activity [18] [%] | Activity [19] [%] | Activity [20] [%] | further results |
| --- | --- | --- | --- | --- | --- | --- | --- | --- | --- | --- | --- | --- | --- | --- | --- | --- | --- | --- | --- | --- | --- |
| CN(C)CCCC(=O)Nc1ccc2ncnc(Nc3cccc(Br)c3)c2c1 | 91 | 79 | 81 | 93 | 90 | 79 | 106 | 76 | 66 | 18 | 80 | 10 | 29 | 78 | 48 | 32 | 89 | 95 | 57 | 103 | Activity [21]: 74%; Activity [22]: 81%; Activity [23]: 72%; Activity [24]: 37%; Activity [25]: 78%; Activity [26]: 96%; Activity [27]: 38%; Activity [28]: 93%; Activity [29]: 64%; Activity [30]: 12%; GI50 [31]: > 5 µM |
| CN(C)CCCC(=O)Nc1ccc2nccc(Nc3cccc(Br)c3)c2c1 | 99 | 83 | 72 | 88 | 86 | 85 | 96 | 49 | 44 | 48 | 61 | 10 | 45 | 81 | 30 | 66 | 84 | 88 | 30 | 94 | Activity [21]: 75%; Activity [22]: 70%; Activity [23]: 89%; Activity [24]: 31%; Activity [25]: 85%; Activity [26]: 95%; Activity [27]: 27%; Activity [28]: 82%; Activity [29]: 68%; Activity [30]: 46%; GI50 [31]: > 0.5 µM |

From ChEMBL document CHEMBL1156950, “Synthesis and biological evaluation of 4-anilinoquinolines as potent inhibitors of epidermal growth factor receptor” (J Med Chem, 2010)
